Test results from the NIST ThermoML archive (doi:10.1016/j.tca.2009.06.004).

Experiment: excess molar enthalpy (molar enthalpy of mixing); xn = mol fraction of the nth substance listed
Settings: 298.15 K, 101 kPa, Liquid, Calvet calorimetry

OCCO [1,2-ethanediol] + O
Settings | excess molar enthalpy [kcal/mol]
x2 = 0.1014 | -0.0416
x2 = 0.1994 | -0.0805
x2 = 0.2091 | -0.0829
x2 = 0.3051 | -0.115
x2 = 0.3674 | -0.134
x2 = 0.3995 | -0.141
x2 = 0.4807 | -0.153
x2 = 0.5455 | -0.159
x2 = 0.6144 | -0.167
x2 = 0.669 | -0.171
x2 = 0.7949 | -0.163
x2 = 0.8656 | -0.136
x2 = 0.915 | -0.101

OCCOCCO [diethylene glycol] + CCO
Settings | excess molar enthalpy [kcal/mol]
x2 = 0.1048 | 0.0182
x2 = 0.1991 | 0.0308
x2 = 0.2967 | 0.0461
x2 = 0.4009 | 0.0595
x2 = 0.4963 | 0.0626
x2 = 0.5879 | 0.0669
x2 = 0.7041 | 0.0602
x2 = 0.7958 | 0.0488
x2 = 0.9006 | 0.0289

OCCOCCO [diethylene glycol] + O
Settings | excess molar enthalpy [kcal/mol]
x2 = 0.1026 | -0.0657
x2 = 0.2012 | -0.122
x2 = 0.2094 | -0.125
x2 = 0.3067 | -0.177
x2 = 0.4068 | -0.223
x2 = 0.4937 | -0.248
x2 = 0.5018 | -0.255
x2 = 0.6003 | -0.285
x2 = 0.6996 | -0.298
x2 = 0.7998 | -0.28
x2 = 0.8999 | -0.205
x2 = 0.9002 | -0.207
x2 = 0.9498 | -0.129

OCC(O)CO [glycerol] + O
Settings | excess molar enthalpy [kcal/mol]
x2 = 0.1028 | -0.0363
x2 = 0.2192 | -0.0698
x2 = 0.3038 | -0.0925
x2 = 0.3964 | -0.113
x2 = 0.5022 | -0.131
x2 = 0.5956 | -0.143
x2 = 0.6991 | -0.146
x2 = 0.8005 | -0.134
x2 = 0.8995 | -0.087

OCCOCCOCCO [triethylene glycol] + CCO
Settings | excess molar enthalpy [kcal/mol]
x2 = 0.104 | 0.028
x2 = 0.2042 | 0.0586
x2 = 0.301 | 0.0837
x2 = 0.399 | 0.104
x2 = 0.5002 | 0.118
x2 = 0.599 | 0.121
x2 = 0.6993 | 0.112
x2 = 0.7995 | 0.0963
x2 = 0.8992 | 0.0621

OCCOCCOCCO [triethylene glycol] + O
Settings | excess molar enthalpy [kcal/mol]
x2 = 0.1291 | -0.105
x2 = 0.2167 | -0.188
x2 = 0.3145 | -0.258
x2 = 0.4016 | -0.32
x2 = 0.5006 | -0.384
x2 = 0.6006 | -0.431
x2 = 0.6999 | -0.448
x2 = 0.7985 | -0.422
x2 = 0.9013 | -0.312
